According to US12534748B2, “Engineered beta-subunit of tryptophan synthase for production of non-canonical amino acids” (California Institute of Technology, priority 2015, dated 2026):
Positions count from the first letter of the chain named.

What was measured:
[1] = target: T1, Pyrococcus furiosus tryptophan synthase complex PfTrpS (PfTrpA + PfTrpB) (Pyrococcus furiosus, UniProt Q8U093); assay: Tryptophan formation from L-serine and indole, kinetics of PfTrpS complex; assay type: biochemical
T1 sequence (Q8U093 with tags, fused parts or gaps): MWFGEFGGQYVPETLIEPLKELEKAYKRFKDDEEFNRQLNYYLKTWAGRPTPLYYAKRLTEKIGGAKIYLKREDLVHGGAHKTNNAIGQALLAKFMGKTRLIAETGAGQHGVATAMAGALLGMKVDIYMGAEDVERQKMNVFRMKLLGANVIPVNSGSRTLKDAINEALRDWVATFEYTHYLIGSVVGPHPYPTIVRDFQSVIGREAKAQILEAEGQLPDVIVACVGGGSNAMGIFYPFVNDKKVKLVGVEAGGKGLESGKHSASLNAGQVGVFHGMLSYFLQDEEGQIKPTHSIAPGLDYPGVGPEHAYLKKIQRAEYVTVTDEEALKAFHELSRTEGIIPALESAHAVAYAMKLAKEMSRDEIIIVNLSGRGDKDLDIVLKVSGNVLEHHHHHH
T1 sequence (Q8U094 1-248 partner): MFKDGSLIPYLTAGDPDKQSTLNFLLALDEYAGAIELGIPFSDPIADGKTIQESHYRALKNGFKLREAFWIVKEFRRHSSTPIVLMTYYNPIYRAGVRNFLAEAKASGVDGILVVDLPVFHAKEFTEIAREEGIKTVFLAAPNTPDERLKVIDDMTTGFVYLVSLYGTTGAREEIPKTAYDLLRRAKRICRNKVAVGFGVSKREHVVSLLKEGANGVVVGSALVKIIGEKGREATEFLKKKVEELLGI
Procedure: (§1) Cloning, Expression, and Purification of PfTrpA and PfTrpB. The genes encoding PfTrpB (UNIPROT ID Q8U093) and PfTrpA (UNIPROT ID Q8U094) were obtained as gBlocks and cloned into pET22(b)+ for expression in E. coli BL21 E. cloni EXPRESS cells (Lucigen). Heterologous protein expression of PfTrpA and PfTrpB was performed in Terrific Broth with 100 μg/mL ampicillin (TBamp) and induced with 500 mM IPTG (final concentration 1 mM). PfTrpB was purified via a HisTrap HP column. PfTrpA was purified via a Q HP HiTrap column (flow-through), followed by ammonium sulfate precipitation, and hydrophobic interaction chromatography on a phenyl Sepharose HP HiTrap column (FIG. 3).
(§2) Kinetics and UV-Vis Spectroscopy.
Selection of the Parent Enzyme, TrpB, from Pyrococcus furiosus.

[2] = target: T2, Pyrococcus furiosus TrpB variant PfTrpB^4D11 (E17G, I68V, T292S, F274S, T321A), SEQ ID NO: 16 (Pyrococcus furiosus, UniProt Q8U093, E17G/F274S/I68V/T292S/T321A); assay: Tryptophan formation from L-serine and indole, kinetics of PfTrpB^4D11; assay type: biochemical; conditions: 75° C.
T2 sequence (Q8U093 with tags, fused parts or gaps E17G/I68V/F274S/T292S/T321A): T1 sequence (Q8U093 with tags, fused parts or gaps) with E17G, I68V, F274S, T292S, T321A
Procedure: as §1, §2
PfTrpB^4D11 served as template for a final round of random mutagenesis, for which 1,144 clones were screened.

Question: `c1ccc2[nH]ccc2c1` [indole] was tested. Which kcat ([1]; 75° C.) did it give?
Answer: Its kcat is 1.0 s⁻¹.

Question: And the “increase in catalytic efficiency for indole upon complexation” value ([1]; PfTrpS relative to PfTrpB)?
Answer: The value was 12 fold.

Question: What about the Km ([1]; read-out: KM, indole, 75° C.) of the same compound?
Answer: Its Km is 20 µM.

Question: What about the kcat [2] of the same compound?
Answer: Its kcat is 2.2 s⁻¹.

Question: And the Km ([2]; read-out: KM, indole)?
Answer: Its Km is 11 µM.
